This is an account of results in patent US5523314A, “Compounds useful as hypoglycemic agents and for treating Alzheimer's disease” (priority 1994, dated 1996).

By IC50 is commonly meant the concentration at which inhibition is half-maximal. Read a low IC50 as higher potency. For orientation: inhibition means the relative decrease from the control value, in per cent. Read a high inhibition as a strong effect.

One experiment deals with blood glucose level. As to the kind of experiment: Hypoglycemic activity in obese diabetic mice (Table 1). The note with it: Mus musculus, ip, 2 h, 50 mg/kg, intraperitoneal, 2 hrs; read-out: Percent of Initial Blood Glucose Level After 2 hrs. It is filed as in vivo, male viable yellow obese-diabetic mice. A digest of the protocol: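 Male viable yellow obese-diabetic mice, six per group, dosed intraperitoneally once with compound in saline containing 2% Emulphor. Blood glucose measured by glucose oxidase before dosing and at 2 and 4 h. Values are the 2 h and 4 h glucose as % of pre-dose level.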
In the case of `O=C1NC(=S)SC1=Cc1ccc(Oc2ccccc2)cc1` [Example 5, 5-[(4-phenoxyphenyl)methylene]-2-thioxo-4-thiazolidinone], the response vs control in vivo at 50 mg/kg came out at 79 ± 4%.

For the compound `CCCCCCCOc1ccc(C=C2SC(=S)NC2=O)cc1OC` [Example 31, 5-[(3-methoxy-4-heptoxyphenyl)methylene]-2-thioxo-4-thiazolidinone], the response vs control in vivo at 50 mg/kg stood at 76 ± 7%.

Regarding `CCOc1cc(C=C2SC(=S)NC2=O)ccc1O` [Example 32, 5-[(3-ethoxy-4-hydroxyphenyl)methylene]-2-thioxo-4-thiazolidinone], the response vs control in vivo at 50 mg/kg amounted to 75 ± 4%.

Still in this experiment, the particulars now being: Mus musculus, ip, 4 h, 50 mg/kg, intraperitoneal, 4 hrs; read-out: Percent of Initial Blood Glucose Level After 4 hrs.
Consider `O=C1NC(=S)SC1=Cc1ccc(Oc2ccccc2)cc1` [Example 5, 5-[(4-phenoxyphenyl)methylene]-2-thioxo-4-thiazolidinone], for which the response vs control in vivo at 50 mg/kg was found to be 71 ± 3%.

As for `CCCCCCCOc1ccc(C=C2SC(=S)NC2=O)cc1OC` [Example 31, 5-[(3-methoxy-4-heptoxyphenyl)methylene]-2-thioxo-4-thiazolidinone], the response vs control in vivo at 50 mg/kg was found to be 76 ± 5%.

In the case of `CCOc1cc(C=C2SC(=S)NC2=O)ccc1O` [Example 32, 5-[(3-ethoxy-4-hydroxyphenyl)methylene]-2-thioxo-4-thiazolidinone], the response vs control in vivo at 50 mg/kg turned out to be 80 ± 8%.

A further experiment relates to blood glucose level. In words: Hypoglycemic activity in normal fed rats (Table 2). In kind it is in vivo, male Sprague Dawley rats. The note with it: Rattus norvegicus; 200 mg/kg, oral, 3 hrs; read-out: Percent of Initial Blood Glucose Level After 3 hrs. How it is done:
The procedure used in this test system is described below.
The desired dose level of each test formulation was administered to four rats by oral […] at the beginning of the experiment. Blood glucose levels were determined immediately before the first dose and at 3 and 5 hours thereafter by an enzymatic procedure employing glucose oxidase and peroxidase coupled with a chromogenic oxygen acceptor. A mean was taken of the 4 values obtained before the first dose and at the 3 and 5 hour intervals.
On to `CCCCCCCOc1ccc(C=C2SC(=S)NC2=O)cc1OC` [Example 31, 5-[(3-methoxy-4-heptoxyphenyl)methylene]-2-thioxo-4-thiazolidinone], for which the response vs control in vivo at 200 mg/kg is 95%.

With `CCOc1cc(C=C2SC(=S)NC2=O)ccc1O` [Example 32, 5-[(3-ethoxy-4-hydroxyphenyl)methylene]-2-thioxo-4-thiazolidinone], the response vs control in vivo at 200 mg/kg is 100%.

The same experiment, now with this note: Rattus norvegicus; 200 mg/kg, oral, 5 hrs; read-out: Percent of Initial Blood Glucose Level After 5 hrs.
Consider `CCCCCCCOc1ccc(C=C2SC(=S)NC2=O)cc1OC` [Example 31, 5-[(3-methoxy-4-heptoxyphenyl)methylene]-2-thioxo-4-thiazolidinone], for which the response vs control in vivo at 200 mg/kg amounted to 92%.

As to `CCOc1cc(C=C2SC(=S)NC2=O)ccc1O` [Example 32, 5-[(3-ethoxy-4-hydroxyphenyl)methylene]-2-thioxo-4-thiazolidinone], the response vs control in vivo at 200 mg/kg stood at 96%.

The target in the next experiment is T1, Human liver cathepsin D (Homo sapiens, UniProt P07339).
T1 construct: purchased Athens Research and Technology, Athens, Ga; host or cells: human liver
T1 sequence (P07339 169-412 limits assumed): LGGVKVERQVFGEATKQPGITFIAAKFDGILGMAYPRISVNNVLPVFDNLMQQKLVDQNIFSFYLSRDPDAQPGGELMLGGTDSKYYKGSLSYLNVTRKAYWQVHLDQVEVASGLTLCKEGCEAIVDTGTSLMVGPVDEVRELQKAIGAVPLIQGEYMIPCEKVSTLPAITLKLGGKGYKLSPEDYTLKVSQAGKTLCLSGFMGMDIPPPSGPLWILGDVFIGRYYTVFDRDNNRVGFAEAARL
T1 sequence (P07339 65-161 limits assumed): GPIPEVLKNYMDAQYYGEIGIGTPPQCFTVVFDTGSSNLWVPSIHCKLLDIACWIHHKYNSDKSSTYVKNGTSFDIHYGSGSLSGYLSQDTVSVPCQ
As to the kind of experiment: Cathepsin D inhibition, fluorometric assay (Tables 5 and 6).
Conditions: not given
It is filed as biochemical. How it is done: Human liver cathepsin D (Athens Research and Technology, Athens, Ga.) was diluted in assay buffer, 200 mM NaOAc, pH 4.5, 150 mM NaCl to 500 ng/mL and then 100 μL of this cathepsin D solution was added to each well of a 96 well plate with the exception of control wells which received just 100 μL of assay buffer. […] Blank and enzyme control wells each received 5 μL of the DMSO vehicle.
After incubation at 37° C. for 30 minutes, cathepsin D activity was terminated by the addition of 100 μL per well of 400 mU/mL microsomal leucine aminopeptidase (EC 3.4.11.2, Sigma, St. Louis, Mo.) in 1M Tris-HCl, pH 8.0.
Following a two hour incubation at 37° C., to allow the aminopeptidase to release the fluorophore, 7-amido-4-methylcoumarin (AMC) from the products of cathepsin D cleavage, the plates were again analyzed in the fluorometer. In order to check for potential false positives, i.e., inhibitors of microsomal leucine aminopeptidase, residual aminopeptidase activity was monitored directly in each well by the addition of 20 μL/well of 2.5 mM Leu-pNA (Bachem Biosciences, Philadelphia, Pa.) in 10% DMSO.
The compound `O=C1NC(=S)SC1=Cc1ccc(Oc2ccccc2)cc1` [Example 5, 5-[(4-phenoxyphenyl)methylene]-2-thioxo-4-thiazolidinone] registered an IC50 of 3600 nM.

On to `CCCCCCCOc1ccc(C=C2SC(=S)NC2=O)cc1OC` [Example 31, 5-[(3-methoxy-4-heptoxyphenyl)methylene]-2-thioxo-4-thiazolidinone], for which the midpoint of inhibition, the IC50, lay at 1900 nM.

Staying with this experiment, now noted: Compound Stock Concentration 4.15 μg/ml.
As for `CCCCCCCOc1ccc(C=C2SC(=S)NC2=O)cc1OC` [Example 31, 5-[(3-methoxy-4-heptoxyphenyl)methylene]-2-thioxo-4-thiazolidinone], the inhibition at 4.15 µg/mL (stock) amounted to 69.5%.

The compound `CCOc1cc(C=C2SC(=S)NC2=O)ccc1O` [Example 32, 5-[(3-ethoxy-4-hydroxyphenyl)methylene]-2-thioxo-4-thiazolidinone] had an inhibition at 4.15 µg/mL (stock) of 75%.

The experiment is the same for the next values; noted with them: Compound Stock Concentration 8.3 μg/ml.
Turning to `O=C1NC(=S)SC1=Cc1ccc(Oc2ccccc2)cc1` [Example 5, 5-[(4-phenoxyphenyl)methylene]-2-thioxo-4-thiazolidinone], the inhibition at 8.3 µg/mL (stock) was 100%.

Still in this experiment, the particulars now being: Compound Stock Concentration 10.0 μg/ml.
In the case of `O=C1NC(=S)SC1=Cc1ccc(Oc2ccccc2)cc1` [Example 5, 5-[(4-phenoxyphenyl)methylene]-2-thioxo-4-thiazolidinone], the inhibition at 10 µg/mL (stock) was determined as 76%.

For `CCCCCCCOc1ccc(C=C2SC(=S)NC2=O)cc1OC` [Example 31, 5-[(3-methoxy-4-heptoxyphenyl)methylene]-2-thioxo-4-thiazolidinone], the inhibition at 10 µg/mL (stock) was found to be 88.5%.

The subject of another experiment is β-amyloid protein. In words: β-amyloid protein production inhibition in 293 751 SWE and CHO 751 SWE cells, ELISA (Table 7). In kind it is cell-based. The note with it: Compound Stock Concentration 0.31 μg/ml; normalized for cytotoxicity. How it is done:
Two cell lines (human kidney cell line 293 and Chinese hamster ovary cell line CHO) were stably transfected with the gene for APP751 containing the double mutation Lys-651-Met-652 to Asn-651-Leu-652 (APP-751 numbering) commonly called the Swedish mutation using the method described in Citron et al., Nature 360:672-674 (1992). The transfected cell lines were designated as 293 751 SWE and CHO 751 SWE, and were plated in Corning 96 well plates at 2.5×10^4 or 1×10^4 cells per well respectively in Dulbecco's minimal essential media (DMEM) plus 10% fetal bovine serum. […] These compound stocks were prepared by dissolving a sufficient quantity of the particular compound to be tested in DMSO such that various concentrations were obtained. After this pretreatment period, the conditioned media was removed and replaced with fresh conditioned media and the cells were incubated for an additional two hours.
After treatment, plates were centrifuged in a Beckman GPR at 1200 rpm for five minutes at room temperature to pellet cellular debris from the conditioned media. From each well, 100 μL of conditioned media were transferred into an ELISA plate precoated with antibody 266 [Seubert et al., Nature, 359:325-327 (1992)] and stored at 4° C. overnight prior to the completion of the ELISA assay the next day.
Cytotoxic effects of the compounds were measured by a modification of the method of Hansen et al., J. Immun. Meth. 119:203-210 (1989). To the cells remaining in the tissue culture plate, was added 25 μL of a 3-(4,5-dimethylthiazol-2-yl)-2,5-diphenyltetrazolium bromide (MTT) stock solution (5 mg/mL) to a final concentration of 1 mg/mL. Cells were incubated at 37° C. for one hour, and cellular activity was stopped by the addition of an equal volume of MTT lysis buffer (20% w/v sodium dodecylsulfate in 50% DMF, pH 4.7). Complete extraction was achieved by overnight shaking at room temperature. The difference in the OD562nm and the OD650nm was measured in a Molecular Devices UVmax microplate reader as an indicator of the cellular viability.
The results of the β-amyloid protein ELISA were fit to a standard curve and expressed as ng/mL β-amyloid protein peptide. In order to normalize for cytotoxicity, these β-amyloid protein results were divided by the cytotoxicity results and expressed as a percentage of the results from a drug-free control.
(In general: ELISA stands for enzyme-linked immunosorbent assay.)
The compound `CCCCCCCOc1ccc(C=C2SC(=S)NC2=O)cc1OC` [Example 31, 5-[(3-methoxy-4-heptoxyphenyl)methylene]-2-thioxo-4-thiazolidinone] yielded an inhibition at 0.31 µg/mL (stock) of 0%.

Staying with this experiment, now noted: Compound Stock Concentration 0.62 μg/ml; normalized for cytotoxicity.
`CCCCCCCOc1ccc(C=C2SC(=S)NC2=O)cc1OC` [Example 31, 5-[(3-methoxy-4-heptoxyphenyl)methylene]-2-thioxo-4-thiazolidinone] had an inhibition at 0.62 µg/mL (stock) of 7%.

Still in this experiment, the particulars now being: Compound Stock Concentration 1.25 μg/ml; normalized for cytotoxicity.
Turning to `CCCCCCCOc1ccc(C=C2SC(=S)NC2=O)cc1OC` [Example 31, 5-[(3-methoxy-4-heptoxyphenyl)methylene]-2-thioxo-4-thiazolidinone], the inhibition at 1.25 µg/mL (stock) is 15%.

Still in this experiment, the particulars now being: Compound Stock Concentration 2.5 μg/ml; normalized for cytotoxicity.
For `CCCCCCCOc1ccc(C=C2SC(=S)NC2=O)cc1OC` [Example 31, 5-[(3-methoxy-4-heptoxyphenyl)methylene]-2-thioxo-4-thiazolidinone], the inhibition at 2.5 µg/mL (stock) was determined as 28%.

Still in this experiment, the particulars now being: Compound Stock Concentration 5.0 μg/ml; normalized for cytotoxicity.
In the case of `CCCCCCCOc1ccc(C=C2SC(=S)NC2=O)cc1OC` [Example 31, 5-[(3-methoxy-4-heptoxyphenyl)methylene]-2-thioxo-4-thiazolidinone], the inhibition at 5 µg/mL (stock) turned out to be 37%.

The same experiment, now with this note: Compound Stock Concentration 10.0 μg/ml; normalized for cytotoxicity.
`O=C1NC(=S)SC1=Cc1ccc(Oc2ccccc2)cc1` [Example 5, 5-[(4-phenoxyphenyl)methylene]-2-thioxo-4-thiazolidinone] came in with an inhibition at 10 µg/mL (stock) of 47%.

`CCCCCCCOc1ccc(C=C2SC(=S)NC2=O)cc1OC` [Example 31, 5-[(3-methoxy-4-heptoxyphenyl)methylene]-2-thioxo-4-thiazolidinone]: the inhibition at 10 µg/mL (stock) was 57%.
